The text below walks through data of patent US9994548B2, “Phenyl-substituted nicotinic ligands, and methods of use thereof” (Georgetown University, priority 2011, dated 2018).

Molecules are shown by their SMILES. “Also recorded” adds a separate entry of the source.

One test has as its target T1, rat α3β4 nAChRs (Rattus norvegicus, UniProt P04757+P12392).
T1 construct: expressed in transfected cells; host or cells: HEK 293 (KXα3β4R2)
The experiment in a line: 86Rb+ efflux assay in stably transfected cells. The test is classed as cell-based. The settings on record: 86Rb+ efflux, rat α3β4. The protocol: (§1) The cell line expressing rat α3β4 nAChRs, KXα3β4R2, was established previously by stably transfecting HEK 293 cells with combinations of rat nAChR α3 and β4 subunit genes. The cell line expressing human α4β2 nAChRs, YXα4β2H1, were established recently (Tuan et al., 2012, manuscript in preparation). These cell lines were maintained in minimum essential medium (MEM) supplemented with 10% fetal bovine serum, 100 units/mL penicillin G, […] streptomycin and selective antibiotics at 37° C. with 5% CO2 in a humidified incubator. Tissue culture medium and antibiotics were obtained from Invitrogen Corporation (Carlsbad, Calif.), unless otherwise stated. Fetal bovine serum and horse serum were provided by Gemini Bio-Products (Woodland, Calif.).
(§2) Functional properties of compounds at nAChRs expressed in the transfected cells were measured using ^86Rb^+ efflux assays as described previously. In brief, cells were plated into 24-well plates coated with poly-D-lysine. The plated cells were grown at 37° C. for 18 to 24 hour to reach 85-95% confluence. The cells were then incubated in growth medium (0.5 mL/well) containing ^86Rb^+ (2 μCi/mL) for 4 hour at 37° C. The loading mixture was then aspirated, and the cells were washed four times with 1 mL buffer (15 mM HEPES, 140 mM NaCl, 2 mM KCl, 1 mM MgSO4, 1.8 mM CaCl2, 11 mM Glucose, pH 7.4). One mL of buffer with or without compounds to be tested was then added to each well. After incubation for 2 min, the assay buffer was collected for measurements of ^86Rb^+ released from the cells. Cells were then lysed by adding 1 mL of 100 mM NaOH to each well, and the lysate was collected for determination of the amount of ^86Rb^+ that was in the cells at the end of the efflux assay. Radioactivity of assay samples and lysates was measured by liquid scintillation counting. Total loading (cpm) was calculated as the sum of the assay sample and the lysate of each well. The amount of ^86Rb^+ efflux was expressed as a percentage of ^86Rb^+ loaded. […] For obtaining EC50 and Emax values, stimulation curves were constructed in which 8 different concentrations of a ligand were included in the assay. […] EC50, Emax and IC50(10′) values were determined by nonlinear least-squares regression analyses (GraphPad, San Diego, Calif.).
(§3) Functional properties of the new ligands were determined by ^86Rb^1 efflux assays in cells expressing α3β4 and α4β2 nAChR subtypes. Functional activity of each new ligand was measured in terms of its agonism, antagonism and desensitization ability.
(§4) Agonist activity of each of the ligands was tested at eight concentrations. […] The full concentration-effect curves generated potency (EC50) and efficacy (Emax) of each ligand.
(§5) Though the ^86Rb^+ efflux assays were the main methodology used to determine functional properties, whole-cell current measurements were also used to verify the key experiments.

For the next test, the target named is T2, human α4β2 nAChRs (Homo sapiens, UniProt P17787+P43681).
T2 construct: expressed in transfected cells
Description: 86Rb+ efflux assay in stably transfected cells. The test is classed as cell-based. Here is the method: as §1, §2, §3, §4, §5

For the next test, the target named is T3, 5-HT3 receptors (Homo sapiens, UniProt P46098).
T3 sequence (P46098 24-478): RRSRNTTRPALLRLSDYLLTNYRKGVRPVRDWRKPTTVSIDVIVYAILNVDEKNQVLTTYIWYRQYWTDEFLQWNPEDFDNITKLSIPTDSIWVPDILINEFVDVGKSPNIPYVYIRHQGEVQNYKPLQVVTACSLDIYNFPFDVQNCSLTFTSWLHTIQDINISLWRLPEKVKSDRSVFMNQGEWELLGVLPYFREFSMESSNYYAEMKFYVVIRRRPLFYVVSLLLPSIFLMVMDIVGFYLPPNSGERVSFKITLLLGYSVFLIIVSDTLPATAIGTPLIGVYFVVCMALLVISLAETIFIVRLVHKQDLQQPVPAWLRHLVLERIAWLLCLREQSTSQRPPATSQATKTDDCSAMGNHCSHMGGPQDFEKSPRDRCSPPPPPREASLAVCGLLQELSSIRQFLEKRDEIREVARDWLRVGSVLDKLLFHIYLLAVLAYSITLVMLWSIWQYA
The experiment in a line: NIMH PDSP primary binding assay. The settings on record: 10 μM. The protocol:
All binding assays for targets other than nAChRs were performed by the National Institute of Mental Health's Psychoactive Drug Screening Program (PDSP) supported by NIMH grant HHSN-271-2008-00025-C(PI: Bryan Roth). For experimental details (Ki determinations, receptor binding profiles, functional data, MDR1 data, etc. as appropriate) refer to the PDSP web site http://pdsp.med.unc.edu/.
The compound either is not a “hit” in primary binding assays, or showing at least 3,000-fold lower binding affinities than that for α4β2 nAChRs in secondary binding assays (FIG. 19,).

Test [1] has as its system nicotine self-administration. The experiment in a line: Nicotine self-administration in rats. The test is classed as in vivo, rat. Here is the method:
The studies were conducted in accordance with the regulations outlined by the Duke University Animal Care and Use Committee. The rats housed in approved standard laboratory conditions in a Duke University vivarium facility near the testing room to minimize stress induced by transporting the rats. The rats were kept on a 12:12 reverse day/night cycle, so that they were in their active phase during behavioral testing. The rats in the drug iv self-administration studies were singly housed to prevent them from damaging each other's catheters. The rats in the locomotor activity studies were housed in groups of 2-3. All rats were allowed access to water at all times; the rats in the nicotine-self-administration study were fed daily approximately 30 minutes after completing the sessions while those in the locomotor activity study had continuous access to food.
VMY-2-95 was injected s.c. 10 minutes before testing in a volume of 1 mL/kg of saline. The doses (0, 0.3, 1 and 3 mg/kg) were given in a counterbalanced order with at least two days between successive injections.
Each infusion was immediately followed by a one-minute period in which the cue lights went out, the house light came on and responses were recorded but not reinforced.
After food training, the animals were surgically implanted with jugular catheters. […] Alpha of p<0.05 (two-tailed) was used as the threshold for significance.

T2 sequence (P43681 29-627 limits assumed): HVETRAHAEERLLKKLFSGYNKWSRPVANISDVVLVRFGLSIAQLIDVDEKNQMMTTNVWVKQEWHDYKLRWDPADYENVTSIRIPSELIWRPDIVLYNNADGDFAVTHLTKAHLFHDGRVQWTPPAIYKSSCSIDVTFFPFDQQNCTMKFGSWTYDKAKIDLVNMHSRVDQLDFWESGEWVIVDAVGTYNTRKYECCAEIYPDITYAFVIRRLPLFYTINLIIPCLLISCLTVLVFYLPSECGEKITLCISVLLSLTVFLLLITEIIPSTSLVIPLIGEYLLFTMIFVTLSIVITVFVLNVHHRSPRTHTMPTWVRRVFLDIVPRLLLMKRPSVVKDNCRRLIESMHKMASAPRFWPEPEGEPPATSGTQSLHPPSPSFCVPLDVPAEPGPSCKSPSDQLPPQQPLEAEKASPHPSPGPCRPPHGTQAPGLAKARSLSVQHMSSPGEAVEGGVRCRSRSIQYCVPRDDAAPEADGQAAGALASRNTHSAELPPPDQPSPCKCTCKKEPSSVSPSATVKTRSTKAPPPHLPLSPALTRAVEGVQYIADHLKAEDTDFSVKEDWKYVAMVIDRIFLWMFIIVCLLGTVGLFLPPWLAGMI
T2 sequence (P17787 26-502): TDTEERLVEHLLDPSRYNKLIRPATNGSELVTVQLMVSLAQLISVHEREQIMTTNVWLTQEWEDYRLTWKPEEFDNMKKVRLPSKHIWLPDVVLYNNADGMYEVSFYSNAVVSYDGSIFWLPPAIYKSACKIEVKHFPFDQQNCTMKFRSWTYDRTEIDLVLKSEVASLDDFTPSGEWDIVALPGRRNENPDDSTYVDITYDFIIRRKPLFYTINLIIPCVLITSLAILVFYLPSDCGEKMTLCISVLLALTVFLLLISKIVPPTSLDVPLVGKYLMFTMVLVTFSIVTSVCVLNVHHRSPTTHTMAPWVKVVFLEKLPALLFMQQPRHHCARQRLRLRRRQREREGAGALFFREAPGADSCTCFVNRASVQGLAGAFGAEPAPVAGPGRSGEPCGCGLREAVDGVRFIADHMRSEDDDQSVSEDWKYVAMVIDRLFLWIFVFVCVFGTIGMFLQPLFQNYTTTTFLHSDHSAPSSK
T1 sequence (P04757 26-499): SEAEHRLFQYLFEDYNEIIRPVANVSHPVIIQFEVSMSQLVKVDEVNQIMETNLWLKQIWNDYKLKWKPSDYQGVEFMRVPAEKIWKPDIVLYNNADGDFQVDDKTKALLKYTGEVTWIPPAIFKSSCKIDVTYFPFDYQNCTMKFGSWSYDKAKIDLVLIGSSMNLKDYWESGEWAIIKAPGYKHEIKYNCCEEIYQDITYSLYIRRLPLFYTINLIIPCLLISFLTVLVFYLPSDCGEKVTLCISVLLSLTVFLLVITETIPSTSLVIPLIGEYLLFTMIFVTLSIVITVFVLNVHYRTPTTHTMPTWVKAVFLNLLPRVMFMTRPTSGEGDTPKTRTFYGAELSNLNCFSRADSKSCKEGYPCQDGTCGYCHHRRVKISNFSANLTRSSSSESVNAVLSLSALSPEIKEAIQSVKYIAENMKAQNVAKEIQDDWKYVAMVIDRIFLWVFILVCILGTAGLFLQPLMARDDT
T1 sequence (P12392 21-495): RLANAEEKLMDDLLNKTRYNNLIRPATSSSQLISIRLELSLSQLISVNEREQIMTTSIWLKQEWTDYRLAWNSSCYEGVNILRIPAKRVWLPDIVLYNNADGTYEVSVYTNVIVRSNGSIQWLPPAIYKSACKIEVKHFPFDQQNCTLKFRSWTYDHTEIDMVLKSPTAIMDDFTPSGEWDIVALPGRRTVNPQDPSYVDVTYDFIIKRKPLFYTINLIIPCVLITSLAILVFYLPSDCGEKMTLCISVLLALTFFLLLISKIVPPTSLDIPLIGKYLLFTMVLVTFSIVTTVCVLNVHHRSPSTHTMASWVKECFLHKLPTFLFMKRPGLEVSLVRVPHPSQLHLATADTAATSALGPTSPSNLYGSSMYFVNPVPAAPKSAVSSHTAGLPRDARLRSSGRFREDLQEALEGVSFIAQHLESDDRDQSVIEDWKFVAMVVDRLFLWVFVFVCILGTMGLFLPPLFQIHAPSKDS

For the molecule `C(#Cc1cncc(OC[C@@H]2CCN2)c1)c1ccccc1` [VMY-2-95, (S)-3-(azetidin-2-ylmethoxy)-5-(phenylethynyl)pyridine], the “agonist activity at α3β4 nAChRs” value at rat α3β4 nAChRs was “did not show any detectable agonist activity; also recorded: does not show agonist activity”. In addition, the half-maximal effective concentration (EC50) (in general, the midpoint of the concentration-response curve) on human α4β2 nAChRs is 0.0086 µM. Moreover, the “agonist activity at α4β2 receptors” value at human α4β2 nAChRs (86Rb+ efflux, human α4β2) is recorded as “clear agonist activity”. In addition, the IC50 (as a rule, the concentration that inhibits the measured activity by half) on human α4β2 nAChRs (10 min pre-treatment before 100 μM (−)-nicotine, read-out: IC50(10′) α4β2 (desensitization potency)) came out at 0.016 µM. Further, the “inhibition of nicotine activation of α4β2 receptors” value on human α4β2 nAChRs (preincubated with the cells for 10 min) is recorded as “inhibited”. Also, the “primary binding result at 5-HT3 receptors” value at 5-HT3 receptors is “not a “hit””. For the same molecule, the “nicotine self-administration (number of nicotine infusions) vs saline vehicle” value in test [1] (3 mg/kg s.c., 10 min before session, p<0.025) was “significantly reduces; also recorded: significant (p<0.025) decrease”. Also, the “intravenous nicotine self-administration, overall dose effect” value in test [1] (0.3, 1, 3 mg/kg s.c., F(3,42)=3.36, p<0.05) was “decreased intravenous nicotine self-administration in a dose-dependent manner”. For the same molecule, the “nicotine self-administration vs saline vehicle” value in test [1] (lower doses 0.3 and 1 mg/kg s.c.) is “did not produce significant decreases; also recorded: did not produce significant effects”.
